The NIST ThermoML archive (doi:10.1021/acs.jced.7b00750)

Assay: xn = mol fraction of the nth substance listed
Details: 100 kPa, Liquid, Vibrating tube method

CNC(N)=O [methylurea] + O
mass density [kg/m3]
Details | 274.15 K | 275.15 K | 276.15 K | 277.15 K | 278.15 K | 279.15 K | 280.15 K | 281.15 K | 282.15 K | 283.15 K
x1 = 0.00244 | 1001.77 | 1001.8 | 1001.82 | 1001.82 | 1001.8 | 1001.76 | 1001.71 | 1001.65 | 1001.57 | 1001.47
x1 = 0.00291 | 1002.12 | 1002.15 | 1002.17 | 1002.17 | 1002.15 | 1002.11 | 1002.05 | 1001.99 | 1001.91 | 1001.81
x1 = 0.00483 | 1003.58 | 1003.6 | 1003.62 | 1003.61 | 1003.58 | 1003.53 | 1003.47 | 1003.39 | 1003.31 | 1003.2
x1 = 0.00553 | 1004.11 | 1004.13 | 1004.14 | 1004.13 | 1004.1 | 1004.05 | 1003.98 | 1003.9 | 1003.81 | 1003.71
x1 = 0.00799 | 1005.96 | 1005.98 | 1005.98 | 1005.97 | 1005.92 | 1005.86 | 1005.78 | 1005.7 | 1005.59 | –
x1 = 0.00834 | 1006.21 | 1006.23 | 1006.24 | 1006.23 | 1006.18 | 1006.11 | 1006.03 | 1005.95 | 1005.84 | –
x1 = 0.01081 | 1008.05 | 1008.07 | 1008.06 | 1008.05 | 1007.99 | 1007.92 | 1007.83 | 1007.72 | 1007.61 | –
x1 = 0.01421 | 1010.56 | 1010.58 | 1010.58 | 1010.54 | 1010.45 | 1010.37 | 1010.26 | 1010.15 | 1010.02 | –
x1 = 0.01662 | – | – | – | – | 1012.18 | – | – | – | – | –
x1 = 0.019 | – | – | – | – | 1013.89 | – | – | – | – | –
x1 = 0.02321 | – | – | – | – | 1016.84 | – | – | – | – | –
x1 = 0.03185 | – | – | – | – | 1022.7 | – | – | – | – | –
x1 = 0.04218 | – | – | – | – | 1029.47 | – | – | – | – | –
x1 = 0.05184 | – | – | – | – | 1035.47 | – | – | – | – | –
x1 = 0.06068 | – | – | – | – | 1040.78 | – | – | – | – | –
x1 = 0.07071 | – | – | – | – | 1046.57 | – | – | – | – | –
